Source: the supplement of paper PMC10307832

Tests used:
Assay in all cases: relative viability (nuclei count vs DMSO), 5 days (fraction); higher = more cells survive
[1] = compound: C1CSC2=C(C(=O)N1)SC3=C2C=C(C=C3)O [kb NB 142-70] + Nc1ncn([C@H]2C[C@H](O)[C@@H](CO)O2)c(=O)n1 [Decitabine] (partner 2 µM)
How it was run: (§1)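 After 5 days of treatment, lung cancer cells in 1536-well plates were fixed and stained in a single step (final 0.05% Triton X-100, 1% formaldehyde, 1 ug/ml Hoechst) and their nuclei counted on 4× images. Treatment had been applied by pin tool the day after seeding as one drug alone or as a fixed anchor-drug dose with five library-drug doses (not always all listed) in √10 steps. Relative viability is the nuclei count of treated wells divided by that of vehicle wells, and values are medians of duplicate plates.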

[2] = compound: NCC(=O)Nc1ccc(-n2nc(C(F)(F)F)cc2-c2ccc3c(ccc4ccccc43)c2)cc1 + COc1cccc2cc(-c3nc([C@H]4CC[C@H](C(=O)O)CC4)n4ncnc(N)c34)[nH]c12 [OSI-027] (partner 0.5 µM)
How it was run: as §1

[3] = compound: NCC(=O)Nc1ccc(-n2nc(C(F)(F)F)cc2-c2ccc3c(ccc4ccccc43)c2)cc1 + C[C@@H](Oc1cc(-c2cnn(C3CCNCC3)c2)cnc1N)c1c(Cl)ccc(F)c1Cl [Crizotinib] (partner 1 µM)
How it was run: as §1

[4] = compound: NCC(=O)Nc1ccc(-n2nc(C(F)(F)F)cc2-c2ccc3c(ccc4ccccc43)c2)cc1 + O=C(c1cc(Cc2n[nH]c(=O)c3ccccc23)ccc1F)N1CCN(C(=O)C2CC2)CC1 [Olaparib] (partner 8 µM)
How it was run: as §1

| Cell Line | relative viability ([1]; first compound 0.1 µM) | relative viability ([1]; first compound 1 µM) | relative viability ([1]; first compound 3.162 µM) | relative viability ([2]; first compound 0.06325 µM) | relative viability ([2]; first compound 0.2 µM) | relative viability ([2]; first compound 0.6325 µM) | relative viability ([2]; first compound 2 µM) | relative viability ([3]; first compound 0.02 µM) | relative viability ([3]; first compound 0.06325 µM) | relative viability ([3]; first compound 0.2 µM) | relative viability ([3]; first compound 0.6325 µM) | relative viability ([3]; first compound 2 µM) | relative viability ([4]; first compound 0.02 µM) | relative viability ([4]; first compound 0.06325 µM) | relative viability ([4]; first compound 0.2 µM) | relative viability ([4]; first compound 0.6325 µM) | relative viability ([4]; first compound 2 µM) | relative viability ([2]; first compound 0.02 µM) |
| --- | --- | --- | --- | --- | --- | --- | --- | --- | --- | --- | --- | --- | --- | --- | --- | --- | --- | --- |
| A-427 | 0.579 | 0.568 | 0.55 | 0.454 | 0.438 | 0.496 | 0.457 | 0.87 | 0.848 | 1.04 | 0.935 | 0.865 | 0.701 | 0.742 | 0.679 | 0.776 | 0.781 |  |
| NCI-H2347 | 0.651 | 0.613 | 0.58 | 0.484 | 0.606 | 0.503 | 0.685 | 0.755 | 0.768 | 0.822 | 0.813 | 0.688 | 0.572 | 0.611 | 0.648 | 0.63 | 0.521 | 0.465 |
| NCI-H1355 | 0.39 | 0.355 | 0.342 | 0.427 | 0.315 | 0.45 | 0.511 | 0.959 | 1.2 | 1.03 | 0.946 | 1.07 | 0.722 | 0.785 | 0.729 | 0.757 | 0.738 | 0.35 |
| NCI-H358 | 0.226 | 0.148 | 0.0899 | 0.842 | 0.84 | 0.711 | 0.834 | 0.622 | 0.557 | 0.572 | 0.56 | 0.761 | 0.613 | 0.58 | 0.632 | 0.636 | 0.606 | 0.749 |
| PC-3 [JPC-3] | 0.831 | 0.833 | 0.871 | 0.761 | 0.777 | 0.715 | 0.872 | 1.01 | 1.03 | 0.996 | 0.959 | 0.99 | 1.19 | 1.2 | 1.22 | 1.08 | 1.18 | 0.802 |
